The text below walks through data of patent US6989263B1, “Method for identifying and using compounds that inactivate HIV-1 and other retroviruses by attacking highly conserved zinc fingers in the viral nucleocapsid protein” (The United States of America as represented by the …, priority 1994, dated 2006).

For assay [1], the target named is T1, HIV NC protein in intact virus (Human immunodeficiency virus type 1 group M subtype B, UniProt P05888).
T1 construct: endogenous in cells; host or cells: intact HIV virions
Nature of the assay: Cross-linking of NC protein in intact HIV (non-reducing gel-mobility shift, western blot). In kind it is biochemical, HIV-1. From the text: Purified concentrated retrovirus and antisera against the purified NC protein of the virus can be used to test the ability of a specific compound to penetrate the virus and react with the NC protein by forming disulfide complexes in the core of the virus. The compound is mixed with the whole retrovirus under reaction conditions appropriate for the compound. The virus is then removed from the reagent by centrifugation and disrupted in, e.g, standard SDS-PAGE sample buffer with (reduced) and without (non-reduced) 2-mercaptoethanol. The viral proteins are then separated by standard SDS-PAGE and the sample examined for the presence or absence of the monomeric NC protein in the non-reduced sample. Depending upon the virus used in the experiment and the conditions of electrophoresis, the NC protein can be visualized by protein staining methods, or by immuno-blot (e.g., western) methods. Compounds which react with the NC protein by attacking the zinc finger complexes and forming disulfide cross-linked products (i.e., which generate multimers in the mobility shift assay) inactivate the virus. Thus, compounds of interest (i.e., those which cause cross-linking) reduced the amount of monomeric NC protein detected.
In order to determine whether HIV-1MN was inactivated by NOBA, the virus was incubated with varying concentrations of NOBA (3.0, 0.3, 0.03 and 0 mM) as in Table 1. The reaction products were pelleted by centrifugation, and separated by SDS-PAGE under reducing (2% 2-mercaptoethanol, panel A), or non-reducing conditions (panel B). p7NC was visualized by immunoblot analysis using monospecific rabbit antisera to the purified NC proteins as per L. E. Henderson et al., J. Virol. 66:1856 (1992).
Disulfide reagents were further tested for their ability to disrupt NC structure in the virus, based on their ability to cause inter-NC cysteine disulfide bonds (i.e., cross-linking) in the intact virus. The formation of inter-NC cysteine disulfides creates NC multimers, which migrate through a non-reducing gel at a different rate than NC monomers, as described above. Intact HIV virus (generally 12.5 μM) was exposed to the specified reagent (generally 25 μM) for varying lengths of time and electrophoresed through a non-reducing SDS-polyacrylamide gel. HIV NC monomers and multimers were visualized by western blot analysis as described above in Example 3. The approximate time required to cross-link one-half of the NC proteins in the virus at the specified reaction conditions was then determined. […] The top number in the cells of the X-link column in Table 2 refers to the approximate time in minutes required for one-half of the HIV NC proteins to become cross-linked.
On the technique in general: Immunoblotting shows a protein as a band on a membrane.

For assay [2], the target named is HV-1 protease (Human immunodeficiency virus type 1 group M subtype B, UniProt P04585). The note with it: cited from earlier work.

On to `NC(=O)c1cccc(N=O)c1` [NOBA, 3-nitrosobenzamide], for which, in assay [1], the “cross-linking of the HIV-1 NC protein in intact virus (gel-mobility shift), in words” value is listed as “caused a cross-linking of the HIV-1 NC protein”. Further, the “amounts of detected p7NC under non-reducing conditions” value in assay [1] (HIV-1MN, NOBA 3.0, 0.3, 0.03 mM, immunoblot) is on record as “decreased with increasing NOBA concentration”. The “enzymatic activity of HV-1 protease” value in assay [2] is “did not influence”.
